One data set concerns INA-6 MM cells. The data set is described as follows: MTT assay of responsiveness to IL-6. Format: cell-based, human. The conditions noted are these: co-treatment 500 nM, serum, 72 hours. As to the method:
(§1) Cell survival of IGF-1R inhibitor-treated cells was examined using the 3-(4,5-Dimethylthiazol-2-yl)-2,5-Diphenyltetrazolium Bromide (MTT) calorimetric assay. […] At the end of each treatment, cells were incubated with 1 mg/ml MTT for 4 hours at 37° C.; a mixture of isopropanol and 1N HCl (23:2, v/v) was then added under vigorous pipetting to dissolve the formazan crystals. Dye absorbance (A) in viable cells was measured at 570 nm, with 630 nm as a reference wavelength. Cell survival was estimated as a percentage of the value of untreated controls. All experiments were repeated at least three times, and each experimental condition was repeated at least in quadruplicate wells in each experiment.
A general note: Formazan colour is commonly taken as a measure of viable cells.

The subject of data set [1] is PC-3 prostate cancer cells. The data set is described as follows: MTT assay of responsiveness to IL-6. It is filed as cell-based, human. The conditions noted are these: co-treatment 500 nM, serum, 72 hours. As to the method: as §1
A further data set concerns MM-1S-Luc human MM cells. The data set is described as follows: Model of diffuse skeletal MM lesions, bioluminescence imaging and survival. Format: in vivo. Here is the method: Briefly, male (6 to 8-week old) SCIDI/NOD mice (Jackson Laboratories, Bar Harbor, Me.) were sublethally irradiated (300 rads) using ^137CS γ-irradiator source. After 3-6 hours, 5×10^6 MM-1S-luc^+ cells in 100 μL of phosphate-buffered saline (PBS) was injected via the tail vein into each mouse. Mice were monitored daily for changes in their body weight, signs of infection, and paralysis, and weekly by whole-body bioluminescence imaging utilizing the In Vivo Imaging System (IVIS, Xenogen Corp, Alameda, Calif.) with total imaging time of 2 min, bin 2. Total body bioluminescence was quantified by integrating the photonic flux (photons/sec) through a standardized region of interest encompassing each mouse (Living Images, Xenogen). […] Melphalan (Alkeran, GlaxoSmithKline, Research Triangle Park, N.C.) was formulated according to manufacturer's instructions, and was administered by i.p. injection. All animal studies were approved by the Dana-Farber Cancer Institute Animal Care and Use Committee.
Statistical significance for in vitro assay results was examined by 2-way analysis of variance, followed by Duncan's post-hoc test. Statistical significance for bioluminescence imaging studies was determined by two-tailed student's t-test. In all analyses, P<0.05 was considered statistically significant. For assessment of in vivo anti-tumor activity, the overall survival of mice was defined as the time between i.v. injection of tumor cells and sacrifice or, death and was compared across different treatment groups with Kaplan-Meier survival analysis.
The in vivo anti-tumor activity of IGF-1R inhibition in a mouse xenograft model of MM was examined. The MM cell line MM-1S was engineered to stably express firefly luciferase fused to a selectable marker (neomycin phosphotransferase or enhanced GFP). Sub-lethally irradiated NOD/SCID mice were injected intravenously with MM-1S-Luc cells and tumor distribution was followed by serial whole-body non-invasive imaging of visible light emitted by luciferase-expressing tumor cells upon injection of mice with luciferin.
Sublethally irradiated NOD/SCID mice were injected with MM1S-Luc cells, and serially imaged to monitor tumor burden. After 2-3 weeks, cohorts of mice with similarly increasing tumor burden were divided into control and treatment groups.

In a further data set the test system is BM stromal cells (BMSCs). The data set is described as follows: Viability of bone marrow stromal cells (MTT). Format: cell-based, human. The following applies: 500 nM for 72 hrs. As to the method:
Primary MM patient samples were freshly isolated from bone marrow aspirates from patients undergoing diagnostic or restaging bone marrow aspirates under an IRB-approved protocol. MM cells were purified using custom-made RosetteSep cocktail of monoclonal antibodies (mAb's) (StemCell Technologies Inc, Vancouver, Canada) for negative selection of CD138^+ MM cells. The CD138^− fraction of the MM cell purification process was cultured in 20% FBS-supplemented media for isolation of the adherent bone marrow stromal cells. Peripheral blood B cells were isolated by ficoll-density centrifugation of peripheral blood samples from MM patients. […] […] At the end of each treatment, cells were incubated with 1 mg/ml MTT for 4 hours at 37° C.; a mixture of isopropanol and 1N HCl (23:2, v/v) was then added under vigorous pipetting to dissolve the formazan crystals. Dye absorbance (A) in viable cells was measured at 570 nm, with 630 nm as a reference wavelength. Cell survival was estimated as a percentage of the value of untreated controls. All experiments were repeated at least three times, and each experimental condition was repeated at least in quadruplicate wells in each experiment.

The test system of another data set is MM-1S cells. Kind of data set: In vitro sensitization of MM-1S cells to anti-cancer drugs. Format: cell-based, human. The following applies: ADW-742 750 nM or α-IR3 2 μg/ml for final 24 hours. As to the method: Cells were cultured in the presence of 10% FBS, and results are expressed as mean ±SD of 3 independent experiments.
as §1

The test system of data set [2] is MM cells, prostate cancer cells, SK-N-MC sarcoma cells. Kind of data set: Sensitization of tumor cells to other anti-cancer therapies in vitro. It is filed as cell-based, human. The following applies: MM cells to doxorubicin, melphalan, dexamethasone, TRAIL/Apo2L, PS-341, SK-N-MC to Fas ligation. As to the method:
The ability of IGF-1R inhibitors to sensitize tumor cells to other anti-cancer therapies in vitro was determined.

A further data set relates to HIF-1α. Kind of data set: HIF-1α DNA binding activity ELISA. It is filed as cell-based, human. Here is the method:
Flow cytometric analyses for IGF-1R, and IGF-2R were performed as previously described on a EPICS-XL-MCL flow cytometer (Beckman Coulter). Previously described protocols were applied for immunoblotting analyses; TRAP telomerase activity assay; 20S proteasome chymotryptic activity assay; DNA binding activity ELISAs for quantitative assessments of NF-κB and HIF-1a transcriptional activities. VEGF and IGF-1 ELISAs were performed according to manufacturer's instructions (R&D Systems, Minneapolis, Minn.). 20S proteasome chymotryptic activity assay was performed as described [Shringarpure 2003]. The transcriptional activity of DNA binding activity of NF-κB and HIF-1α was measured as previously reported. Libermann T A, et al., . Proc Natl Acad Sci USA; 2002 99: 14374-14379; Mitsiades N. et al., 2002, 99: 4079-4086; Mitsiades N. et al., 2002; Blood 99: 4525-4530 and Mitsiades N., et al 2003 Blood; 101: 2377-2380.

[3] abbreviates: monotherapy 10 mg/kg i.p. twice daily.

`Nc1ncnc2c1c(-c1cccc(OCc3ccccc3)c1)cn2[C@H]1C[C@H](CN2CCCC2)C1` [ADW-742, trans-5-(3-benzyloxy-phenyl)-7-(3-pyrrolidin-1-ylmethyl-cyclobutyl)-7H-pyrrolo[2,3-d]pyrimidin-4-ylamine]: the “responsiveness to IL-6” value (with INA-6 MM cells; in data set [1]) was “abrogated” in each case. Also, the treatment-related toxicity entry with MM-1S-Luc human MM cells (10 mg/kg i.p. twice daily) is given as “no other significant treatment-related toxicity”. In addition, the median overall survival in the data set on MM-1S-Luc human MM cells (10 mg/kg i.p. twice daily for 19 days, control 21 days, P=0.02 log-rank) came to 38 days. The “anti-tumor activity, pulsatile administration” value in the data set on MM-1S-Luc human MM cells (10 mg/kg i.p. twice daily, 4 days per week, alone) is on record as “no significant anti-tumor activity”. For the same molecule, the body weight entry with MM-1S-Luc human MM cells (10 mg/kg i.p. twice daily, between treatment groups, P=0.82) is listed as “no difference in body weight”. The “survival, combination with melphalan” value in the data set with MM-1S-Luc human MM cells (melphalan 2.5 mg i.p once a week followed by ADW-742 10 mg/kg i.p. twice daily, 4 days per week) is reported as “synergistic effect in prolonging the survival of mice”. The survival of mice result in the data set with MM-1S-Luc human MM cells (setting [3]) is listed as “prolongs the survival of mice”. In addition, the tumor growth entry in the data set on MM-1S-Luc human MM cells (setting [3]) is listed as “significantly suppresses tumor growth”. Besides, the “anti-tumor efficacy, further studies” value with MM-1S-Luc human MM cells (second study same i.p. dosing, third study orally 50 mg/kg twice daily) is listed as “Consistent results”. Moreover, the “viability of BM stromal cells” value in the data set on BM stromal cells (BMSCs) is reported as “does not significantly affect”. In addition, the “sensitivity of MM-1S cells to dexamethasone” value with MM-1S cells (dexamethasone 0.1 μM 72 hrs) is “enhances the sensitivity”. In the data set on MM-1S cells (doxorubicin 50 ng/mL 48 hrs), the “sensitivity of MM-1S cells to doxorubicin” value is given as “enhance the sensitivity”. Also, the “sensitivity of MM-1S cells to melphalan” value with MM-1S cells (melphalan 1 μM 48 hrs) is on record as “enhance the sensitivity”. In data set [2], the “sensitivity of tumor cells to other anti-cancer therapies” value is given as “increases the sensitivity”. Moreover, in the data set with HIF-1α, the “IGF-1-induced HIF-1α activity” value is recorded as “suppress”.

(Values after US7781393B2, “Methods for inhibiting tumor cell growth” (Dana-Farber Cancer Institute, Inc., priority 2004, dated 2010).)
